Data as given in patent US10316017B2, “COT modulators and methods of use thereof” (Gilead Sciences, Inc., priority 2015, dated 2019).
pEC50, pIC50: −log10 of the molar value.

Assays:
[1] = biological target: T1, human Cot catalytic domain (30-397 amino acids) (Homo sapiens, UniProt P41279); experiment: High Throughput Cot Biochemical Assay (KinEASE TR-FRET); details: Cot biochemical HTRF (KinEASE TR-FRET) assay; read-out: IC50 HTRF
T1 construct: Purified recombinant human Cot catalytic domain (30-397 amino acids) was purchased from Cama Biosciences; purchased Cama Biosciences (so in the source)
T1 sequence (P41279 30-397): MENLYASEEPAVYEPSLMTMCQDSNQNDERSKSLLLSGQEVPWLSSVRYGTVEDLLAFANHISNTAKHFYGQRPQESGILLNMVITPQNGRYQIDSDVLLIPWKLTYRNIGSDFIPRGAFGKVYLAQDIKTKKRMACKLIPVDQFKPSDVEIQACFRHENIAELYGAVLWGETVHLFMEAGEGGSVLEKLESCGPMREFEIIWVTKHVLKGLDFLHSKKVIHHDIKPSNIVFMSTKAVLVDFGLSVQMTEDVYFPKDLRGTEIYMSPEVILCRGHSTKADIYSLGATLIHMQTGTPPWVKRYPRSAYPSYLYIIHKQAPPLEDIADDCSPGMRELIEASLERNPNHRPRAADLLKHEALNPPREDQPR
Summary of the method: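 TR-FRET readout: Eu-labeled phospho-specific antibody binds XL665-tagged STK3 peptide after phosphorylation by Cot (aa 30-397, 5 nM). Conditions: 400 μM ATP, 1 μM peptide, MOPS pH 7.0 buffer with MgOAc, DTT, BSA, NP-40, glycerol; 0.1% DMSO.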

[2] = system: TNFα production in LPS-stimulated human monocytes; experiment: Cot Monocyte TNFα Cell Based Assay; details: Homo sapiens, Monocyte, TNFα in LPS-stimulated human monocytes; read-out: EC50 TNF
Summary of the method: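 TR-FRET read-out of total secreted TNFα, normalized as % control (unstimulated = 0%, LPS-stimulated = 100%). Cells (5,000/well) were exposed to compound 1 h at 37 °C, then to 50 pg/ml LPS for a further 4 h.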

Row | SMILES | pIC50 [1] | pEC50 [2]
1 | CC(C)(C)N1CCC(n2cc([C@@H](Nc3cc(Cl)c4ncc(C#N)c(Nc5ccc(F)c(Cl)c5)c4c3)c3cccc(CN4CCOCC4)c3)nn2)CC1 [Example 733, (S)-6-(((1-(1-(tert-butyl)piperidin-4-yl)-1H-1,2,3-triazol-4-yl)(3-(morpholinomethyl)phenyl)methyl)amino)-8-chloro-4-((3-chloro-4-fluorophenyl)amino)quinoline-3-carbonitrile] | 8.22 | 6.05
2 | Cc1nnc(C(Nc2cc(Cl)c3ncc(C#N)c(Nc4ccc(F)c(Cl)c4)c3c2)c2ccc(F)cc2)o1 (centres unmarked) [Example 734, 8-chloro-4-((3-chloro-4-fluorophenyl)amino)-6-(((4-fluorophenyl)(5-methyl-1,3,4-oxadiazol-2-yl)methyl)amino)quinoline-3-carbonitrile] | 6.82 | 5.41
3 | CN1CC(n2cc([C@@H](Nc3cc(Cl)c4ncc(C#N)c(Nc5ccc(F)c(Cl)c5)c4c3)c3ccccc3)nn2)CC(F)(F)C1 (stereo partly drawn) [Example 736, 8-chloro-4-((3-chloro-4-fluorophenyl)amino)-6-(((1S)-(1-(5,5-difluoro-1-methylpiperidin-3-yl)-1H-1,2,3-triazol-4-yl)(phenyl)methyl)amino) quinoline-3-carbonitrile] | 7.39 | 6.42
4 | N#Cc1cnc2c(Cl)cc(N[C@@H](c3ccccc3)c3cn(CCN4CCOCC4)nn3)cc2c1Nc1ccc(F)c(Cl)c1 [Example 737, (S)-8-chloro-4-((3-chloro-4-fluorophenyl)amino)-6-(((1-(2-morpholinoethyl)-1H-1,2,3-triazol-4-yl)(phenyl)methyl)amino)quinoline-3-carbonitrile] | 7.68 | 6.39
5 | N#Cc1cnc2c(Cl)cc(N[C@@H](c3ccccc3)c3cn(CCO)nn3)cc2c1Nc1ccc(F)c(Cl)c1 [Example 738, (S)-8-chloro-4-((3-chloro-4-fluorophenyl)amino)-6-(((1-(2-hydroxyethyl)-1H-1,2,3-triazol-4-yl)(phenyl)methyl)amino)quinoline-3-carbonitrile] | 8.15 | 6.56
6 | CC(C)(C)N1CCC(n2cc([C@@H](Nc3cc(Cl)c4ncc(C#N)c(Nc5cccc(Cl)c5F)c4c3)c3ccc(Cl)cc3)nn2)CC1 [Example 739, (S)-6-(((1-(1-(tert-butyl)piperidin-4-yl)-1H-1,2,3-triazol-4-yl)(4-chlorophenyl)methyl)amino)-8-chloro-4-((3-chloro-2-fluorophenyl)amino)quinoline-3-carbonitrile] | 7.66 | 5.96
7 | CC(C)(C)N1CCC(n2cc([C@@H](Nc3cc(Cl)c4ncc(C#N)c(Nc5ccc(Cl)cc5)c4c3)c3ccc(Cl)cc3)nn2)CC1 [Example 740, (S)-6-(((1-(1-(tert-butyl)piperidin-4-yl)-1H-1,2,3-triazol-4-yl)(4-chlorophenyl)methyl)amino)-8-chloro-4-((4-chlorophenyl)amino)quinoline-3-carbonitrile] | 6.61 | 5.26
8 | Cc1cccc(Nc2c(C#N)cnc3c(Cl)cc(N[C@@H](c4ccc(Cl)cc4)c4cn(C5CCN(C(C)(C)C)CC5)nn4)cc23)c1 [Example 741, (S)-6-(((1-(1-(tert-butyl)piperidin-4-yl)-1H-1,2,3-triazol-4-yl)(4-chlorophenyl)methyl)amino)-8-chloro-4-(m-tolylamino)quinoline-3-carbonitrile] | 6.91 | 5.91
9 | Cc1ccc(Nc2c(C#N)cnc3c(Cl)cc(N[C@@H](c4ccc(Cl)cc4)c4cn(C5CCN(C(C)(C)C)CC5)nn4)cc23)cc1 [Example 742, (S)-6-(((1-(1-(tert-butyl)piperidin-4-yl)-1H-1,2,3-triazol-4-yl)(4-chlorophenyl)methyl)amino)-8-chloro-4-(p-tolylamino)quinoline-3-carbonitrile] | 6.50 | 5.75
10 | CCN1CC[C@@H](n2cc([C@@H](Nc3cc(Cl)c4ncc(C#N)c(Nc5ccc(F)c(Cl)c5)c4c3)c3ccccc3)nn2)[C@H](F)C1 [Example 743, 8-chloro-4-((3-chloro-4-fluorophenyl)amino)-6-(((S)-(1-((3R,4R)-1-ethyl-3-fluoropiperidin-4-yl)-1H-1,2,3-triazol-4-yl)(phenyl)methyl)amino)quinoline-3-carbonitrile] | 7.54 | 6.24
11 | N#Cc1cnc2c(Cl)cc(N[C@@H](c3ccccc3)c3cn([C@@H]4CCNC[C@H]4F)nn3)cc2c1Nc1ccc(F)c(Cl)c1 [Example 744, 8-chloro-4-((3-chloro-4-fluorophenyl)amino)-6-(((S)-(1-((3R,4R)-3-fluoropiperidin-4-yl)-1H-1,2,3-triazol-4-yl)(phenyl)methyl)amino) quinoline-3-carbonitrile] | 7.89 | 6.44
12 | CCN1CC(n2cc([C@@H](Nc3cc(Cl)c4ncc(C#N)c(Nc5ccc(F)c(Cl)c5)c4c3)c3ccccc3)nn2)CC(F)(F)C1 (stereo partly drawn) [Example 745, 8-chloro-4-((3-chloro-4-fluorophenyl)amino)-6-(((1S)-(1-(1-ethyl-5,5-difluoropiperidin-3-yl)-1H-1,2,3-triazol-4-yl)(phenyl)methyl)amino) quinoline-3-carbonitrile] | 7.15 | 6.21
13 | N#Cc1cnc2c(Cl)cc(N[C@@H](c3ccccc3)c3cn(CC(=O)N4CCOCC4)nn3)cc2c1Nc1ccc(F)c(Cl)c1 [Example 746, (S)-8-chloro-4-((3-chloro-4-fluorophenyl)amino)-6-(((1-(2-morpholino-2-oxoethyl)-1H-1,2,3-triazol-4-yl)(phenyl)methyl)amino) quinoline-3-carbonitrile] | 7.54 | 6.46
14 | CCN1CC(Cn2cc([C@@H](Nc3cc(Cl)c4ncc(C#N)c(Nc5ccc(F)c(Cl)c5)c4c3)c3ccccc3)nn2)C1 [Example 747, (S)-8-chloro-4-((3-chloro-4-fluorophenyl)amino)-6-(((1-((1-ethylazetidin-3-yl)methyl)-1H-1,2,3-triazol-4-yl)(phenyl)methyl)amino) quinoline-3-carbonitrile] | 8.40 | 6.96

The remaining lines, values ahead:

Row | pIC50 [1] | pEC50 [2] | SMILES
15 | 7.22 | 6.21 | N#Cc1cnc2c(Cl)cc(N[C@@H](c3ccccc3)c3cn(C4CNCC(F)(F)C4)nn3)cc2c1Nc1ccc(F)c(Cl)c1 (stereo partly drawn) [Example 748, 8-chloro-4-((3-chloro-4-fluorophenyl)amino)-6-(((1S)-(1-(5,5-difluoropiperidin-3-yl)-1H-1,2,3-triazol-4-yl)(phenyl)methyl)amino) quinoline-3-carbonitrile]
16 | 5.72 | 5.33 | CC(C)(C)N1CCC(n2cc([C@@H](Nc3cc(Cl)c4ncc(C#N)c(Nc5ccc(C(F)(F)F)nc5)c4c3)c3ccc(Cl)cc3)nn2)CC1 [Example 750, (S)-6-(((1-(1-(tert-butyl)piperidin-4-yl)-1H-1,2,3-triazol-4-yl)(4-chlorophenyl)methyl)amino)-8-chloro-4-((6-(trifluoromethyl)pyridin-3-yl)amino)quinoline-3-carbonitrile]
17 | 7.06 | 5.78 | CC(C)(C)N1CCC(n2cc([C@@H](Nc3cc(Cl)c4ncc(C#N)c(Nc5cccc(C#N)c5)c4c3)c3ccc(Cl)cc3)nn2)CC1 [Example 753, (S)-6-(((1-(1-(tert-butyl)piperidin-4-yl)-1H-1,2,3-triazol-4-yl)(4-chlorophenyl)methyl)amino)-8-chloro-4-((3-cyanophenyl)amino)quinoline-3-carbonitrile]
18 | 6.70 | 5.50 | CC(C)(C)N1CCC(n2cc([C@@H](Nc3cc(Cl)c4ncc(C#N)c(Nc5ccc(Cl)c(F)c5)c4c3)c3ccc(Cl)cc3)nn2)CC1 [Example 755, (S)-6-(((1-(1-(tert-butyl)piperidin-4-yl)-1H-1,2,3-triazol-4-yl)(4-chlorophenyl)methyl)amino)-8-chloro-4-((4-chloro-3-fluorophenyl)amino)quinoline-3-carbonitrile]
19 | 6.97 | 5.53 | CC(C)(C)N1CCC(n2cc([C@@H](Nc3cc(Cl)c4ncc(C#N)c(Nc5cc(Cl)cc(Cl)c5)c4c3)c3ccc(Cl)cc3)nn2)CC1 [Example 756, (S)-6-(((1-(1-(tert-butyl)piperidin-4-yl)-1H-1,2,3-triazol-4-yl)(4-chlorophenyl)methyl)amino)-8-chloro-4-((3,5-dichlorophenyl)amino)quinoline-3-carbonitrile]
20 | 7.39 | 6.13 | CC(C)(C)N1CCC(n2cc([C@@H](Nc3cc(Cl)c4ncc(C#N)c(Nc5cccc(Br)c5)c4c3)c3ccc(Cl)cc3)nn2)CC1 [Example 757, (S)-4-((3-bromophenyl)amino)-6-(((1-(1-(tert-butyl)piperidin-4-yl)-1H-1,2,3-triazol-4-yl)(4-chlorophenyl)methyl)amino)-8-chloroquinoline-3-carbonitrile]
21 | 7.01 | 5.88 | CC(C)(C)N1CCC(n2cc([C@@H](Nc3cc(Cl)c4ncc(C#N)c(Nc5ccccc5Cl)c4c3)c3ccc(Cl)cc3)nn2)CC1 [Example 758, (S)-6-(((1-(1-(tert-butyl)piperidin-4-yl)-1H-1,2,3-triazol-4-yl)(4-chlorophenyl)methyl)amino)-8-chloro-4-((2-chlorophenyl)amino)quinoline-3-carbonitrile]
22 | 5.67 | 5.56 | CC(C)(C)N1CCC(n2cc([C@@H](Nc3cc(Cl)c4ncc(C#N)c(Nc5ccc(OC(F)(F)F)cc5)c4c3)c3ccc(Cl)cc3)nn2)CC1 [Example 759, (S)-6-(((1-(1-(tert-butyl)piperidin-4-yl)-1H-1,2,3-triazol-4-yl)(4-chlorophenyl)methyl)amino)-8-chloro-4-((4-(trifluoromethoxy)phenyl)amino) quinoline-3-carbonitrile]
